Measurements as given in ChEMBL document CHEMBL1155072, “Urotensin-II receptor antagonists: synthesis and SAR of N-cyclic azaalkyl benzamides” (Bioorg Med Chem Lett, 2008).

How the values were obtained:
Urotensin-2 receptor [1] = molecular target: T1, Urotensin-2 receptor (Homo sapiens, UniProt Q9UKP6); test: Displacement of [I125]hU2 from human recombinant urotensin 2 receptor expressed in HEK293 cells; type: cell-based
T1 sequence (Q9UKP6 whole entry): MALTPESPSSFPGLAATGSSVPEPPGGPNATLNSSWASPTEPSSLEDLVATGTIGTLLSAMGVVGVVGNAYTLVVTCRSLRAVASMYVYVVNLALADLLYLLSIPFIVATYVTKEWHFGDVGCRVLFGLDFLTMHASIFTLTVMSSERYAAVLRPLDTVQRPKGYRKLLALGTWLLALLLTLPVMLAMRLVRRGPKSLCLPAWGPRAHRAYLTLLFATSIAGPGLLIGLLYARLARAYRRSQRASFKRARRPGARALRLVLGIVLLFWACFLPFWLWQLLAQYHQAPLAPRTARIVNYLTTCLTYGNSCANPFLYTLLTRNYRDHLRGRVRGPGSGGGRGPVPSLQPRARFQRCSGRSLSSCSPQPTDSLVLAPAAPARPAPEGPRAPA

Urotensin-2 receptor [2] = molecular target: T1, Urotensin-2 receptor; test: Antagonist activity at human recombinant urotensin 2 receptor expressed in HEK293 cells assessed as inhibition of urotensin 2-induced calcium mobilization by FLIPR assay; type: functional, cell-based
[3] = molecular target: 5-hydroxytryptamine receptor 1E (Homo sapiens, UniProt P28566); test: Binding affinity to 5HT1E receptor
Chain of 5-hydroxytryptamine receptor 1E (P28566 whole entry): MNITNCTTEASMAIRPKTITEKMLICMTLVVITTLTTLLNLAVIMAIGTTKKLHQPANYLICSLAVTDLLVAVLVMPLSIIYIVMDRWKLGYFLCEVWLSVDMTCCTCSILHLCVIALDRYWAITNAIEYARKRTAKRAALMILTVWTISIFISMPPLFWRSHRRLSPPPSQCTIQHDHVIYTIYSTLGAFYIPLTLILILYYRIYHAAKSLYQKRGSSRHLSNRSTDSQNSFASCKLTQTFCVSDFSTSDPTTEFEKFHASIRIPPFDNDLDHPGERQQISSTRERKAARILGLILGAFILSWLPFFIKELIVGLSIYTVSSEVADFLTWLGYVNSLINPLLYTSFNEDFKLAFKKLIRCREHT

Cytochrome P450 2D6 = Cytochrome P450 2D6 (Homo sapiens, UniProt P10635); test: Inhibition of CYP2D6; type: ADME
Chain of Cytochrome P450 2D6 (P10635 whole entry): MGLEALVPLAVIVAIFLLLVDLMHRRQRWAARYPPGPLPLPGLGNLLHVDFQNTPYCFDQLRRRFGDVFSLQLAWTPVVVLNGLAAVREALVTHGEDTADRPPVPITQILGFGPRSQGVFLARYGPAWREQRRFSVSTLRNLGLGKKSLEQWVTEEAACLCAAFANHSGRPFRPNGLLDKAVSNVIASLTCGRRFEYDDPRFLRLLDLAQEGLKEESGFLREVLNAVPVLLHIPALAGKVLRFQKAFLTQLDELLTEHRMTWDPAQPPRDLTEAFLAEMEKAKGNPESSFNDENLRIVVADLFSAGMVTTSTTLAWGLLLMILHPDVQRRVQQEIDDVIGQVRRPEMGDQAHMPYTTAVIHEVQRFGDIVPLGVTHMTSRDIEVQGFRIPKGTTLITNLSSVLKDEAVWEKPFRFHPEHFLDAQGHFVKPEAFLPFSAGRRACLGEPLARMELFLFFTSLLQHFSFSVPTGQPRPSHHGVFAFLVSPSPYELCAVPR

[4] = molecular target: 5-hydroxytryptamine receptor 2B (Homo sapiens, UniProt P41595); test: Binding affinity at 5HT2B receptor
Chain of 5-hydroxytryptamine receptor 2B (P41595 whole entry): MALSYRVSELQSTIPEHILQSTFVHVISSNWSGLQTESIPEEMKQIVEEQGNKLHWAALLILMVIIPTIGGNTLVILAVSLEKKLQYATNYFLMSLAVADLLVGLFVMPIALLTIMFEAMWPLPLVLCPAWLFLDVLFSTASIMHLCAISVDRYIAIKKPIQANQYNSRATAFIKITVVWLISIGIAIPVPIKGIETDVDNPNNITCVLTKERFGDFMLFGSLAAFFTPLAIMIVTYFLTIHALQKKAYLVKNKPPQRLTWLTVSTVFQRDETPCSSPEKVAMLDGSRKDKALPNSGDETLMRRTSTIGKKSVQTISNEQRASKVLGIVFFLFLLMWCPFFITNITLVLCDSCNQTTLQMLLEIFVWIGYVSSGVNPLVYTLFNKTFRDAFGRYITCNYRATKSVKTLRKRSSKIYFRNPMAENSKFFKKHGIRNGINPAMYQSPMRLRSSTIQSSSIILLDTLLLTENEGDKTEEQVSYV

[5] = molecular target: 5-hydroxytryptamine receptor 1D (Homo sapiens, UniProt P28221); test: Binding affinity to 5HT1D receptor
Chain of 5-hydroxytryptamine receptor 1D (P28221 whole entry): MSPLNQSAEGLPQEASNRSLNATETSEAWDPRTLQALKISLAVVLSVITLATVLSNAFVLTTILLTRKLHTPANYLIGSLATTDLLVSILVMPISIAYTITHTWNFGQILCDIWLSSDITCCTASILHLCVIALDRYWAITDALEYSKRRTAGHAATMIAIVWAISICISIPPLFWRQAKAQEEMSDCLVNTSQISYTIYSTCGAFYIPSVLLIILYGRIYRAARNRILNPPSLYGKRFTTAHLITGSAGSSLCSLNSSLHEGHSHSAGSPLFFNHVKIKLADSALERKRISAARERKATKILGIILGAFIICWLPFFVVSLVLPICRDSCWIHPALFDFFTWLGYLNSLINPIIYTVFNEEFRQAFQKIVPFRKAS

[6] = molecular target: Cytochrome P450 3A4 (Homo sapiens) (UniProt P08684); test: Inhibition of CYP3A4
Chain of Cytochrome P450 3A4 (Homo sapiens) (P08684 whole entry, looked up): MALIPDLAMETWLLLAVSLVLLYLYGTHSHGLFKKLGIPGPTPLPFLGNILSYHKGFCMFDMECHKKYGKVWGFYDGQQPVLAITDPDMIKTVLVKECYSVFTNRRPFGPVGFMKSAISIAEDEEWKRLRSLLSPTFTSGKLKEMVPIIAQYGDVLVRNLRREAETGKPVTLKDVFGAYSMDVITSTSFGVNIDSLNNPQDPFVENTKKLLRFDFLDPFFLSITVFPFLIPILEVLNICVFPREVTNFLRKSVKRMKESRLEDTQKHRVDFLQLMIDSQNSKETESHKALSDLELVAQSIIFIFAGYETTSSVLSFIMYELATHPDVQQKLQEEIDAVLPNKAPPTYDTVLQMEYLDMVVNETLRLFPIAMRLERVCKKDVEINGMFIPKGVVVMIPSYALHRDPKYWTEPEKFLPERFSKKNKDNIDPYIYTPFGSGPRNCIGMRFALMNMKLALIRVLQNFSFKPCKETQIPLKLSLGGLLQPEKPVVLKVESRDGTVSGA

[7] = molecular target: T2, 5-hydroxytryptamine receptor 1A (Homo sapiens, UniProt P08908); test: Binding affinity to 5HT1A receptor
T2 sequence (P08908 whole entry): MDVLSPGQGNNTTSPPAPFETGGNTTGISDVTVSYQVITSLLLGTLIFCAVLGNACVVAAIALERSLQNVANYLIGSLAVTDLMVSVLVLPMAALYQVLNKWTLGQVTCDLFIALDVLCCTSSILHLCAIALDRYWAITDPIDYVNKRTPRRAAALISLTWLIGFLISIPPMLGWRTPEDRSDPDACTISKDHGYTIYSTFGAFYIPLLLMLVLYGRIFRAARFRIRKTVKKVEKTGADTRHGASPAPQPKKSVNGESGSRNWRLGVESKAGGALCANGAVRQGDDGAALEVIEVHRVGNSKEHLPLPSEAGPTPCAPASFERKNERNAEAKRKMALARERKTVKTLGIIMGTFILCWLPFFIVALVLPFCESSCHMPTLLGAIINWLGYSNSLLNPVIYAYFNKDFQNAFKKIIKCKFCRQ

[8] = molecular target: Beta-2 adrenergic receptor (Homo sapiens, UniProt P07550); test: Binding affinity to beta 2 adrenergic receptor
Chain of Beta-2 adrenergic receptor (P07550 whole entry): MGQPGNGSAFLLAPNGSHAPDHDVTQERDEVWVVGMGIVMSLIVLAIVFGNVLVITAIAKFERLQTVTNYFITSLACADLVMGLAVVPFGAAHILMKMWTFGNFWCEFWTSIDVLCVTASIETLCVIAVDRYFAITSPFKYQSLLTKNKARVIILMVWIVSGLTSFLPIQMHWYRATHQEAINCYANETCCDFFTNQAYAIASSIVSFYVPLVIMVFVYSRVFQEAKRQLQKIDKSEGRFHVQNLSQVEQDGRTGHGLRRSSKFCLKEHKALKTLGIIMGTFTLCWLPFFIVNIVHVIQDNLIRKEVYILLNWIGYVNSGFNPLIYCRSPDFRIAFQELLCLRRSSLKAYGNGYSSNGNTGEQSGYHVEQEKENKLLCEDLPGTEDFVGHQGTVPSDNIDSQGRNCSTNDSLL

[9] = molecular target: T3, 5-hydroxytryptamine receptor 1F (Homo sapiens, UniProt P30939); test: Binding affinity to 5HT1F receptor
T3 sequence (P30939 whole entry): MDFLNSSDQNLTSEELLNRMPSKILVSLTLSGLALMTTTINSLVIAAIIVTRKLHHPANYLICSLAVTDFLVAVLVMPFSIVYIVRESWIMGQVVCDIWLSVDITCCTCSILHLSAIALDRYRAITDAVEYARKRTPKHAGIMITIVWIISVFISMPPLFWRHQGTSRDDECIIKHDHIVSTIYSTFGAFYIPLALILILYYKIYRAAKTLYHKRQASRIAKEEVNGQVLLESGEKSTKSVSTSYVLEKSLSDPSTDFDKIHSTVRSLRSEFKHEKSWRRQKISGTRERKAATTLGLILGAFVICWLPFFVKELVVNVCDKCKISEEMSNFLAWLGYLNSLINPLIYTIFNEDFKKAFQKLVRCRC

D(2) dopamine receptor = D(2) dopamine receptor (Homo sapiens, UniProt P14416); test: Binding affinity to dopamine D2 receptor
Chain of D(2) dopamine receptor (P14416 whole entry): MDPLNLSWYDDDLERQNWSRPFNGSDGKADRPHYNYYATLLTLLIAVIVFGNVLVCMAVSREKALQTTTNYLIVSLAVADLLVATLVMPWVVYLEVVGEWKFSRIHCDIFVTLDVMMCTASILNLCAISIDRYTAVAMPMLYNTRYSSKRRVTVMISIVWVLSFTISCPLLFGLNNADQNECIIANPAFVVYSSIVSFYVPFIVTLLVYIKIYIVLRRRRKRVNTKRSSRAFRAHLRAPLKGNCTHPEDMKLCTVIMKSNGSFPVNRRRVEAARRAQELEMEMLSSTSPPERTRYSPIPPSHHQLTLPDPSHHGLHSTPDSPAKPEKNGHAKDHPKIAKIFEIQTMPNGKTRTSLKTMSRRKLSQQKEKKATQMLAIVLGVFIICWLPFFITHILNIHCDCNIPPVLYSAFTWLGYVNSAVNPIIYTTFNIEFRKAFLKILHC

[10] = molecular target: T4, 5-hydroxytryptamine receptor 2C (Homo sapiens, UniProt P28335); test: Binding affinity at 5HT2C receptor
T4 sequence (P28335 whole entry): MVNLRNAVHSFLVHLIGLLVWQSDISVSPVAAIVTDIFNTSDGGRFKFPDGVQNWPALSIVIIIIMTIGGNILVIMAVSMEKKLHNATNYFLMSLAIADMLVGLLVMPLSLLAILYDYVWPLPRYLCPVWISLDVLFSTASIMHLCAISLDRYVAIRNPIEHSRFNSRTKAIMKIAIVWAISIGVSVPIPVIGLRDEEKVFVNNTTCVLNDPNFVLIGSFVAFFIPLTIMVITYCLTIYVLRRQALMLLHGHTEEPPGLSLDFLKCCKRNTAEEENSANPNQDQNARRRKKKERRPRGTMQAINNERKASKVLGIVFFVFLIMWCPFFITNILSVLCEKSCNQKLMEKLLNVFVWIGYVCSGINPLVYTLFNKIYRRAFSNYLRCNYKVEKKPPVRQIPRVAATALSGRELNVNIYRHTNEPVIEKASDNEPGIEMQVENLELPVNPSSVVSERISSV

[11] = molecular target: 5-hydroxytryptamine receptor 6 (Homo sapiens, UniProt P50406); test: Binding affinity to 5HT6 receptor
Chain of 5-hydroxytryptamine receptor 6 (P50406 whole entry): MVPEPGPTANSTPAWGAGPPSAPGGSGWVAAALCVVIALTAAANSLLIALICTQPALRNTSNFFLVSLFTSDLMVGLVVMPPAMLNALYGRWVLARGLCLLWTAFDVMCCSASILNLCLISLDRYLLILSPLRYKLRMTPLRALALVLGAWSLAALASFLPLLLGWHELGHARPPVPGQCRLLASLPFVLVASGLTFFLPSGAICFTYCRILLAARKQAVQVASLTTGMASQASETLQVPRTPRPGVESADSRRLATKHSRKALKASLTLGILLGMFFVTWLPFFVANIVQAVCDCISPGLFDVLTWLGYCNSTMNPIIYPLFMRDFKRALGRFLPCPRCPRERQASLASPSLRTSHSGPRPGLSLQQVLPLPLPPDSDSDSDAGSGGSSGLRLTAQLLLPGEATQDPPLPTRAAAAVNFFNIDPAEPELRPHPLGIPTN

Row | SMILES | Ki (Urotensin-2 receptor [1]) [nM] | other results
1 | CC(C)C[C@H](NC(=O)c1cc2ccccc2s1)C(=O)N[C@H]1CCN(Cc2ccc(OCCCN(C)C)cc2)C1 | 110 | 
2 | CN(C)CCCOc1ccc(CN2CC[C@H](NC(=O)c3ccc(Br)cc3)C2)cc1 | 320 | 
3 | CN(C)CCCOc1ccc(CN2CC[C@H](NC(=O)c3ccc(Cl)c(Cl)c3)C2)cc1 |  | IC50 (Urotensin-2 receptor [2]): 170 nM
4 | CC(C)C[C@H](NC(=O)c1cc2ccccc2s1)C(=O)N[C@H]1CCN(Cc2ccc(OC3CCNCC3)c(Br)c2)C1 | 3 | 
5 | CN(C)CCCOc1cccc(CN2CC[C@H](NC(=O)c3ccc(Cl)c(Cl)c3)C2)c1 | > 3000 | 
6 | CN(C)CCCOc1ccccc1CN1CC[C@H](NC(=O)c2ccc(Cl)c(Cl)c2)C1 | > 10000 | 
7 | O=C(N[C@H]1CCN(Cc2ccc(OC3CCN(Cc4ccccc4)CC3)c(Br)c2)C1)c1ccc(Cl)c(Cl)c1 | 230 | 
8 | O=C(N[C@H]1CCN(CCc2ccc(OC3CCNCC3)c(Br)c2)C1)c1ccc(Cl)c(Cl)c1 | 10 | 
9 | O=C(N[C@H]1CCN(CCc2ccc(OC3CCNCC3)cc2)C1)c1ccc(Cl)c(Cl)c1 | 42 | 
10 | CN(C)CCCOc1ccc(CN2CC[C@@H](NC(=O)c3ccc(Br)cc3)C2)cc1 | 350 | 
11 | CN(C)CCCOc1ccc(CN2CC[C@H](NC(=O)c3ccc(Cl)c(Cl)c3)C2)cc1Br | 61 | 
12 | O=C(N[C@H]1CCN(Cc2ccc(OCCN3CCCC3)c(Br)c2)C1)c1ccc(Cl)c(Cl)c1 | 1000 | 
13 | CN(C)CCCOc1ccc(CN2CCC(NC(=O)c3ccc(Cl)c(Cl)c3)CC2)cc1 | 500 | 
14 | CN(C)CCCOc1ccc(CN(C)CCCNC(=O)c2ccc(Cl)c(Cl)c2)cc1 | > 10000 | 
15 | O=C(N[C@H]1CCN(CCc2ccc(OC3CCNCC3)c(F)c2)C1)c1ccc(Cl)c(Cl)c1 | 62 | 
16 | O=C(N[C@@H]1CCN(S(=O)(=O)c2ccc(OC3CCNCC3)c(Br)c2)C1)c1ccc(Cl)c(Cl)c1 | 380 | 
17 | O=C(N[C@H]1CCN(CCc2ccc(OC3CCNCC3)c([N+](=O)[O-])c2)C1)c1ccc(Cl)c(Cl)c1 | 69 | 

Row | SMILES | Ki (Urotensin-2 receptor [1]) [nM] | other results
18 | O=C(N[C@H]1CCN(Cc2ccc(OCCN3CCOCC3)c(Br)c2)C1)c1ccc(Cl)c(Cl)c1 | 3500 | 
19 | O=C(N[C@H]1CCN(Cc2ccc(OCCN3CCNCC3)c(Br)c2)C1)c1ccc(Cl)c(Cl)c1 | 1500 | 
20 | O=C(N[C@H]1CCN(Cc2ccc(O[C@@H]3CCNC3)c(Br)c2)C1)c1ccc(Cl)c(Cl)c1 | 5.5 | 
21 | O=C(NC1CCN(S(=O)(=O)c2ccc(OC3CCNCC3)c(Br)c2)CC1)c1ccc(Cl)c(Cl)c1 | 140 | 
22 | O=C(N[C@H]1CCN(Cc2ccc(OC3CCNCC3)c(Br)c2)C1)c1ccc(Cl)c(Cl)c1 | 4 | Ki [3]: > 10000 nM; IC50 (Urotensin-2 receptor [2]): 4 nM; IC50 (Cytochrome P450 2D6): 2200 nM; Ki [4]: 140 nM; Ki [5]: 140 nM; IC50 [6]: 1900 nM; Ki [7]: 38 nM; Ki [8]: > 10000 nM; Ki [9]: 7200 nM; Ki (D(2) dopamine receptor): 100 nM; Ki [10]: 85 nM; Ki [11]: 4100 nM
23 | CC(C)C[C@H](NC(=O)c1cc2ccccc2s1)C(=O)N[C@H]1CCN(S(=O)(=O)c2ccc(OC3CCNCC3)c(Br)c2)C1 | 12 | 
24 | O=C(N[C@H]1CCN(Cc2ccc(O[C@H]3CCNC3)c(Br)c2)C1)c1ccc(Cl)c(Cl)c1 | 44 | 
25 | CC(C)C[C@H](NC(=O)c1cc2ccccc2s1)C(=O)N[C@H]1CCN(CCc2ccc(O[C@@H]3CCNC3)c(Br)c2)C1 | 18 | 
26 | O=C(N[C@H]1CCN(S(=O)(=O)c2ccc(OC3CCNCC3)c(Br)c2)C1)c1ccc(Cl)c(Cl)c1 | 120 | 
27 | CN(C)CCCOc1ccc(CN2CCN(C(=O)c3ccc(Cl)c(Cl)c3)CC2)cc1 | > 10000 | 
28 | COc1cc(CCN2CC[C@H](NC(=O)c3ccc(Cl)c(Cl)c3)C2)ccc1OC1CCNCC1 | 36 | 
29 | O=C(N[C@H]1CCN(CCc2ccc(OC3CCNCC3)c(Cl)c2)C1)c1ccc(Cl)c(Cl)c1 | 15 | 
30 | CN1CCC(Oc2ccc(CN3CC[C@H](NC(=O)c4ccc(Cl)c(Cl)c4)C3)cc2Cl)C1 (mixture of isomers) | 47 | 
31 | Cc1cc(CN2CC[C@H](NC(=O)c3ccc(Cl)c(Cl)c3)C2)ccc1OC1CCN(C)C1 (mixture of isomers) | 108 | 
32 | CN1CCC(Oc2ccc(CN3CCC(NC(=O)c4ccc(Cl)c(Cl)c4)C3)cc2Br)C1 (racemic) | 41 | 
33 | CN1CCC(Oc2ccc(CN3CCC(NC(=O)c4ccc(Cl)c(Cl)c4)C3)cc2)C1 (racemic) | 97 | 
34 | O=C(NC1CCCCN(S(=O)(=O)c2ccc(OC3CCNCC3)c(Br)c2)C1)c1ccc(Cl)c(Cl)c1 (racemic) | 71 | 
